Source: patent publication US8124834B2, “Use of active cytokinin synthase gene” (Riken, priority 2006, dated 2012)

T1: LOG protein (Oryza sativa subsp. japonica, UniProt Q5ZC82)
T1 sequence (Q5ZC82 1-242): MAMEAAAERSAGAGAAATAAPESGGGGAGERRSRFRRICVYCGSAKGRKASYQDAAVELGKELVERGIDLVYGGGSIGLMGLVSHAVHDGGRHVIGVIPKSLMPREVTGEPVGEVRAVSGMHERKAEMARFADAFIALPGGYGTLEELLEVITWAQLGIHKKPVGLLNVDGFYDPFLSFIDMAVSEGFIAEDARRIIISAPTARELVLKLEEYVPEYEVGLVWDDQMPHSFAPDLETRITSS

B1: AtLOG3: Arabidopsis thaliana LOG homolog protein, gene At2g37210, amino acid sequence SEQ ID NO: 8, purified from E. coli (protein, listed as Arabidopsis sp.)
chain: MEIKGESMQKSKFRRICVFCGSSQGKKSSYQDAAVDLGNELVSRNIDLVYGGGSIGLMGLVSQAVHDGGRHVIGIIPKTLMPRELTGETVGEVRAVADMHQRKAEMAKHSDAFIALPGGYGTLEELLEVITWAQLGIHDKPVGLLNVDGYYNSLLSFIDKAVEEGFISPTAREIIVSAPTAKELVKKLEEYAPCHERVATKLCWEMERIGYSSEE
B2: AtLOG4: Arabidopsis thaliana LOG homolog protein, gene At3g53450, amino acid sequence SEQ ID NO: 10, purified from E. coli (protein, listed as Arabidopsis sp.)
chain: MEVNNETMQKSKFGRICVFCGSSQGKKSSYQDAAVDLGNELVLRNIDLVYGGGSIGLMGLVSQAVHDGGRHVIGVIPKTLMPRELTGETVGEVRAVADMHQRKAEMARHSDAFIALPGGYGTLEELLEVITWAQLGIHDKPVGLLNVDGYYNSLLSFIDKAVEEGFISTNARQIIISAPTAKELVKKLEEYSPCHESVATKLCWEIERIDYSSED
B3: AtLOG5: Arabidopsis thaliana LOG homolog protein, gene At4g35190, amino acid sequence SEQ ID NO: 12, purified from E. coli (protein, listed as Arabidopsis sp.)
chain: MEIVKSRFKRVCVFCGSSSGKRECYSDAATDLAQELVTRRLNLVYGGGSIGLMGLVSQAVHEAGGHVLGIIPRTLMDKEITGETYGEVIAVADMHERKAEMARHSDCFIALPGGYGTLEELLEVIAWAQLGIHDKPVGLLNVDGYYNYLLTFIDKAVDDGFIKPSQRHIFVSAPNAKELVQKLEAYKPVNDGVIAKSRWEVEKKVQQPQQQQQVVFCSNTSMQTEIAL
B4: AtLOG7: Arabidopsis thaliana LOG homolog protein, gene At5g06300, amino acid sequence SEQ ID NO: 14, purified from E. coli (protein, listed as Arabidopsis sp.)
chain: MEETKSRFKRICVFCGSSSGKKPSYQEAAIQLGNELVERRIDLVYGGGSVGLMGLVSQAVHHGGRHVLGVIPKTLMPREITGETIGEVKAVADMHQRKAEMARQADAFIALPGGYGTLEELLEVITWAQLGIHRKPVGLLNVDGYYNSLLTFIDKAVDEGFISPMARRIIVSAPNAKELVRQLEEYEPEFDEITSKLVWDEVDRISYVPGSEVATAT

System: not listed separately
Assay: Enzyme properties of AtLOG 1, 2, 3, 4, 5, 7 and 8 proteins having iPRMP as substrate
Assay type: biochemical, Arabidopsis thaliana
Details: not given
Protocol: In order to obtain the Km value of the LOG protein to typical substrates iPRMP and tZRMP, the following experiment was carried out. 0.02 μg of LOG protein was used for a single reaction, and it was reacted with a substrate in a substrate concentration of each of 5, 8, 15, 30 and 100 μM in 200 μl of a reaction solution containing 50 mM Tris-HCl, 1 mM MgCl2, 1 mM DTT, pH 6.5. Thereafter, 0 minute, 2 minutes and 4 minutes after initiation of the reaction, 600 μl of cold acetone was added to the reaction solution to terminate the reaction. The reaction solution was left at rest at −80° C. for 30 minutes, and it was then centrifuged at 15,000 rpm for 20 minutes. Thereafter, a supernatant was dried using a centrifugal thickener. The resultant was dissolved in 100 μl of 2% acetic acid, and a reaction product was then detected and quantified under the same conditions as those for the liquid chromatography of Example 2. Only the injection amount was changed to 50 μl. The aforementioned experiment was carried out three times, and the Km value was calculated.
The enzyme activity of each of the purified AtLOG proteins was evaluated under the same reaction conditions as those of Example 2. […] In addition, the enzyme property of each AtLOG protein to iPRMP was determined in the same manner as in Example 5 (Table 4). In Table 4, the Km, Vmax and Kcat values were calculated based on a reaction under the optimal pH condition of each AtLOG protein.

Row | Molecule | Optimal pH
1 | B1 | 6.5 pH
2 | B2 | 6.5 pH
3 | B3 | 5.4 pH
4 | B4 | 6.5 pH

Target: T1, LOG protein
Assay: Detection of enzyme activity of recombinant LOG protein with cytokinin substrates (HPLC)
Assay type: biochemical
Parameters: the protein coding region of the LOG gene cDNA was inserted into pCOLD-I (TaKaRa), a His-tag protein expression vector; made in house; host or cells: E. coli BL21(DE3)[pG-Tf2]
Details: 3 μg LOG protein, 50 μM substrate, pH7, 30° C., 2 hours, HPLC absorption at 270 nm
Protocol: The following 8 types of cytokinin substrates were used: N^6-(delta-2-isopentenyl)adenine (iP), trans-zeatin (tZ), cis-zeatin (cZ), iP riboside (iPR), tZ riboside (tZR), cZ riboside (cZR), iPR 5′-monophosphate (iPRMP), and tZR 5′-monophosphate (tZRMP). As reaction conditions, 100 μl of a reaction solution containing 50 mM Tris-HCl, 1 mM MgCl2, and a 50 μM substrate, pH7 was incubated at 30° C. for 2 hours. Thereafter, 10 μl of 20% acetic acid was added to the reaction solution to terminate the reaction, and the reaction solution was then centrifuged at 15,000 rpm at a room temperature for 20 minutes. […] For elution, solvent C (100% acetonitrile) and solvent D (2% acetic acid) were used.

Row | Molecule | reactivity of the substrate with recombinant LOG protein (conversion to base form)
5 | C/C(=C/CNc1ncnc2c1ncn2[C@@H]1O[C@H](CO)[C@@H](O)[C@H]1O)CO [cZR, cZ riboside] | no reactivity
6 | C/C(=C\CNc1ncnc2c1ncn2[C@@H]1O[C@H](CO)[C@@H](O)[C@H]1O)CO [tZR, tZ riboside] | no reactivity
7 | CC(C)=CCNc1ncnc2c1ncn2[C@@H]1O[C@H](CO)[C@@H](O)[C@H]1O [iPR, iP riboside] | no reactivity
8 | C/C(=C\CNc1ncnc2nc[nH]c12)CO [tZ, trans-zeatin] | no reactivity
9 | C/C(=C/CNc1ncnc2nc[nH]c12)CO [cZ, cis-zeatin] | no reactivity
10 | CC(C)=CCNc1ncnc2nc[nH]c12 [iP, N^6-(delta-2-isopentenyl)adenine] | no reactivity

Target: T1, LOG protein
Assay: Substrate specificity of LOG protein to nucleotide cytokinin forms and AMP
Assay type: biochemical
Parameters: the protein coding region of the LOG gene cDNA was inserted into pCOLD-I (TaKaRa), a His-tag protein expression vector; made in house; host or cells: E. coli BL21(DE3)[pG-Tf2]
Details: 0.02 μg LOG protein, 100 μM substrate, pH 6.5, 4 minutes (iPRDP, iPRTP: 0.01 μg, 2 minutes)
Protocol: The reaction specificity of the LOG protein to a nucleotide cytokinin form was analyzed. […] The following 7 types of substrates were used: iPRMP, tZRMP, dihydrozeatin riboside 5′-monophosphate (DZRMP), cZR 5′-monophosphate (cZRMP), iPR 5′-diphosphate (iPRDP), iPR 5′-triphosphate (iPRTP), and AMP. The reaction conditions are as follows. 0.02 μg of the LOG protein was used for a single reaction, and it was reacted with a 100 μM substrate in 200 μl of a reaction solution containing 50 mM Tris-HCl, 1 mM MgCl2, 1 mM DTT, pH 6.5. Thereafter, 0 minute and 4 minutes after initiation of the reaction, 600 μl of cold acetone was added to the reaction solution to terminate the reaction. The reaction solution was left at rest at −80° C. for 30 minutes, and it was then centrifuged at 15,000 rpm for 20 minutes. Thereafter, a supernatant was dried using a centrifugal thickener. […] Only the injection amount was changed to 50 μl. In the case of iPRDP and iPRTP, the amount of a reaction solution was determined to be 100 μl, the mass of a protein used was determined to be 0.01 μg, and the reaction time was determined to be 2 minutes.

Row | Molecule | reactivity of LOG protein to the substrate (substrate specificity)
11 | cis-zeatin riboside 5′-monophosphate [cZRMP] | uses as a substrate
12 | CC(CO)CCNc1ncnc2c1ncn2C1OC(COP(=O)(O)O)C(O)C1O (stereo not drawn) [DZRMP, dihydrozeatin riboside 5′-monophosphate] | uses as a substrate
